# In EP0523873A1, “Non-substrate peptide inhibitors of farnesyl protein transferase” (MERCK & CO. INC., priority 1991, dated 1993):
# Where two headings read alike, the source gives them in different places. Square brackets hold non-standard residues; d marks the D form. Peptide text beside a SMILES is read from it. Phe(4-F) = N[C@@H](Cc1ccc(F)cc1)C(=O)O
# Assays:
# [1] = test system: partially pure bovine brain farnesyl-protein transferase; test: Tetrapeptides tested as farnesylation substrates with [3H]FPP (TLC / autoradiography); format: biochemical; conditions: peptide 200 µM, 0.5 µM [3H]-FPP, 30 minutes at 30°C
# Text: (§1) When a peptide was used as the acceptor substrate, there were two changes to the assay: (1) Ras protein was excluded and, (2) the reactions were stopped by the addition of one tenth volume of 0.5 M EDTA. A portion of the reaction mixture was spotted onto a TLC plate (silica gel 60 thin layer chromatography plates (20 cm x 20 cm, 0.25 mm layer thickness) [formula] were from E. Merck (Darrnstadt)) and eluted with either ethyl acetate:pyridine:acetic acid:water (10:5:1:3) or n-propanol:water (7:3) elution systems. After drying under vacuum, the plates were sprayed with En³Hance and exposed to X-ray film at -70°C.
# CAAX tetrapeptides and other tetrapeptides including Cys-Xaa¹-Xaa²-Xaa³ were tested as farnesylation substrates using [³H]FPP and partially pure bovine brain farnesyl-protein transferase.
# The indicated peptides at 200 µM were incubated with partially pure bovine farnesyl-protein transferase and 0.5 µM [3H]-FPP for 30 minutes at 30°C. Autoradiographic exposure time was overnight (15-20 hours).
# [2] = molecular target: T1, Farnesyl-protein transferase from bovine brain (partially purified) (Bos taurus, UniProt P29702+P49355); test: Inhibition of Ras farnesylation in vitro by tetrapeptides; format: biochemical
# T1 construct: Farnesyl-protein transferase was prepared from bovine brain; from tissue; host or cells: bovine brain (cerebral lobes); Ras substrate expressed in E. coli
# Protocol: (§2) Polyisoprenylation of Ras- [³H]Farnesyldiphosphate (FPP) (20 Ci/mmol) was purchased from New England Nuclear. Farnesyl-protein transferase activity assays were carried out as 30°C unless noted otherwise. […] After thermally pre-equilibrating the assay mixture in the absence of enzyme, reactions were initiated by the addition of farnesyl-protein transferase and stopped at timed intervals by the addition of 1 M HCl in ethanol (1 mL). The quenched reactions were allowed to stand for 15 minutes (to complete the precipitation process). After adding 2 mL of 100% ethanol, the reactions were vacuum-filtered through Whatman GF/C filters. Filters were washed four times with 2 mL aliquots of 100% ethanol, mixed with scintillation fluid (10 mL) and then counted in a Beckman LS3801 scintillation counter.
# (§3) For inhibition studies, assays were run as described above, except putative inhibitors were added at the concentrations indicated. IC₅₀ values were determined with both farnesyl-protein transferase substrates at their KM concentrations.
# Farnesyl-protein transferase was prepared from bovine brain. All purification steps were performed at 4°C. Cerebral lobes from bovine brains were homogenized in lysis buffer containing 50 mM. Tris-Cl, pH 8.0, 1 mM EGTA, 1 mM MgCl₂, 5 mM dithiothreitol, 10 µg/mL aprotinin, 0.5 mM phenylmethyl sulfonyl fluoride (PMSF), 2 µg/mL anitpain and 2 µg/mL leupeptin. Cellular debris and membranes were removed by centrifugation (10,000 g for 20 minutes followed by 100,000 g for 30 minutes). The supernatant was loaded directly onto a column (30 cm x 20 cm²) [formula] of DEAE-Sephacel that had been equilibrated with lysis buffer. The column was washed with the same buffer and proteins were eluted with a linear gradient of NaCL (0-500 mM, 1 L + 1 L) [formula] in the same buffer. Fractions (20 mL) were collected and those containing farnesyl-protein transferase activity were pooled. Each pool was then applied to an ω-Aminooctyl agarose column (30 cm x 4.9 cm²) [formula] and eluted with a linear gradient of NaCl (0-500 mM, 500 mL + 500 mL) [formula] in lysis buffer. Fractions containing farnesylprotein transferase were pooled. For most assays further partial purifiation was achieved by HPLC using a Mono Q H.R. 10/10 column and eluting farnesyl-protein transferase activity with a 0-0.3 M NaCl gradient over 85 minutes at 2 ml/min.
# Farnesyl-protein transferase from bovine brain was chromatographed on DEAE-Sephacel (Pharmacia, 0-0.8 M NaCl gradient elution), N-octyl agarose (Sigma, 0-0.6 M NaCl gradient elution), and a Mono Q HPLC column (Pharmacia, 0.0.3M NaCl gradient). […] Data presented in the Table 2 are the average of 2-5 determinations. Single capital letter amino acid abbreviations are used above.
# [3] = test system: farnesyl-protein transferase; test: Tetrapeptides tested as farnesylation substrates ([3H]FPP, TLC and autoradiography); format: biochemical; conditions: [³H]FPP, partially pure bovine brain farnesyl-protein transferase, TLC, autoradiography
# Text: as §1
# CAAX tetrapeptides and other tetrapeptides including Cys-Xaa¹-Xaa²-Xaa³ were tested as farnesylation substrates using [³H]FPP and partially pure bovine brain farnesyl-protein transferase. […] Thin layer chromatography (TLC) conditions were developed which resolved the substrates farnesyl diphosphate (Rf = 0.06) [formula] and CVLS (Rf = 0.28) [formula] and product S-farnesyl-CVLS (Rf = 0.58) [formula] . These Rf values reflect TLC conditions using ethylacetate: pyridine:acetic acid:water (10:5:1:3) as the elutent. […] Control peptides having a Cys to Ser substitution were not substrates. […]
# [4] = test system: farnesyl-protein transferase; test: Mechanism of inhibition using homogenous, pure farnesyl-protein transferase; format: biochemical, bovine
# Protocol: To prepare pure enzyme, the […], […], was covalently bound to Affigel-10 under anhydrous conditions as described by the manufacture (15 µmol peptide per 1 mL of Affigel-10). Unreacted resin was treated with ethanolamine. After multiple passes of ω-aminooctyl-agarose-column-purified protein over the peptide column, the column was washed and eluted as described by Reiss, et al., (1990) ibid, to recover farnesyl-protein transferase activity.
# To further verify that Cys-Xaa¹-Xaa²-Xaa³ were interacting with the active site of farnesyl-protein transfer, CIFM (SEQ ID NO: 2) was evaluated for its mechanism of inhibition using homogenous, pure farnesyl-protein transferase.
# [5] = test system: farnesyl-protein transferase; conditions: earlier findings (Schaber et al., ibid); cited from earlier work
# [6] = molecular target: farnesyl-protein transferase (bovine brain) (Bos taurus, UniProt P29702+P49355); conditions: read-out: KM for FPP; 30°C, 50 mM HEPES, pH 7.5, 5 mM MgCl2, 5 mM dithiothreitol
# Protocol: as §2, §3
# Farnesyl-protein transferase was prepared from bovine brain. All purification steps were performed at 4°C. Cerebral lobes from bovine brains were homogenized in lysis buffer containing 50 mM. Tris-Cl, pH 8.0, 1 mM EGTA, 1 mM MgCl₂, 5 mM dithiothreitol, 10 µg/mL aprotinin, 0.5 mM phenylmethyl sulfonyl fluoride (PMSF), 2 µg/mL anitpain and 2 µg/mL leupeptin. […]
# [7] = Ras-CVLS at 3.5 µM, 0.25 µM [3H]FPP (both substrates at KM), average of 2-5 determinations, read-out: IC50
Compound,Farnesylation Substrate [1],"IC50 [2, 7]",further results
"CSCC[C@H](NC(=O)[C@H](Cc1ccccc1)NC(=O)[C@@H](NC(=O)[C@@H](N)CS)C(C)C)C(=O)O [CVFM, Cys-Val-Phe-Met]",- (- < 1% conversion),,
CC(C)C[C@H](NC(=O)[C@@H](NC(=O)[C@@H](N)CO)C(C)C)C(=O)N[C@@H](CO)C(=O)O [SVLS] (H-SVLS-OH),- (- < 1% conversion),,
CC[C@H](C)[C@H](NC(=O)[C@@H](NC(=O)[C@@H](N)CS)C(C)C)C(=O)N[C@@H](CCSC)C(=O)O [CVIM] (H-CVIM-OH),+ (+ > 90% [3H] farnesyl diphosphate converted to [3H] farnesyl tetrapeptide),,IC50 [2]: 100 nM
"CC[C@H](C)[C@H](NC(=O)[C@@H](N)CS)C(=O)N[C@@H](Cc1ccccc1)C(=O)N[C@@H](CCSC)C(=O)O [CIFM, Cys-Ile-Phe-Met] (H-CIFM-OH)",- (- < 1% conversion),10 nM,farnesylation substrate activity [3]: do not serve as effective substrates; mechanism of inhibition with respect to Ras protein substrate [4]: competitive inhibitor; mechanism of inhibition with respect to farnesyl diphosphate [4]: not a competitive inhibitor
"SSGCVLS [heptapeptide SSGCVLS, earlier found to serve as a substrate for isoprenylation]",,,substrate for isoprenylation [5]: served as a substrate for isoprenylation
"CC[C@H](C)[C@H](NC(=O)[C@@H](N)CS)C(=O)N[C@@H](Cc1ccccc1)C(=O)N[C@@H](CCC(N)=O)C(=O)O [CIFQ, Cys-Ile-Phe-Gln] (H-CIFQ-OH)",- (- < 1% conversion),23 nM,
CC[C@H](C)[C@H](NC(=O)[C@H](C)NC(=O)[C@@H](N)CS)C(=O)N[C@@H](CCSC)C(=O)O [CAIM] (H-CAIM-OH),+ (+ > 90% [3H] farnesyl diphosphate converted to [3H] farnesyl tetrapeptide),200 nM,
CC[C@H](C)[C@H](NC(=O)[C@@H](N)CS)C(=O)N[C@@H](Cc1ccc(F)cc1)C(=O)N[C@@H](CCSC)C(=O)O [CI(p-fluoro-F)M] (H-CI[Phe(4-F)]M-OH),- (- < 1% conversion),10 nM,
CC[C@H](C)[C@H](NC(=O)[C@H](C)NC(=O)[C@@H](N)CS)C(=O)N[C@@H](CO)C(=O)O [CAIS] (H-CAIS-OH),+ (+ > 90% [3H] farnesyl diphosphate converted to [3H] farnesyl tetrapeptide),1000 nM,
"CC(C)=CCC/C(C)=C/CC/C(C)=C/CO[P@@](=O)(O)OP(=O)(O)O (stereo in doubt) [FPP, farnesyl diphosphate]",,,Km [6]: 0.25 µM
CC[C@H](C)[C@H](NC(=O)[C@H](Cc1ccc(O)cc1)NC(=O)[C@@H](N)CS)C(=O)N[C@@H](CCSC)C(=O)O [CYIM] (H-CYIM-OH),+ (+ > 90% [3H] farnesyl diphosphate converted to [3H] farnesyl tetrapeptide),100 nM,
